Measurements reported in PMC10988762, “Inhibition of malaria and babesiosis parasites by putative red blood cell targeting small molecules” (Frontiers in Cellular and Infection Microbiology, 2024).
Counter-ions that a name gives are not always drawn. Like-named read-outs stand apart in the source and are kept apart here.

What was measured:
P. falciparum strain 3D7 = test: Inhibitor susceptibility dose-response assay (SYBR-Green I), P. falciparum 3D7; type: cell-based, Plasmodium falciparum; conditions: Plasmodium falciparum, read-out: IC50 (S.D.), P. falciparum-3D7
Description: (§1) The P. falciparum strains 3D7 and Dd2 were obtained from the Walter and Eliza Hall Institute (Melbourne, Australia) and the Malaria Research and Reference Reagent Resource, respectively. […] B. divergens parasites were maintained and assayed in mixed stages without synchronization.
(§2) Ring-stage P. falciparum (1%-parasitemia starting, 1%-hematocrit) and asynchronous B.divergens (0.5%-parasitemia starting, 3%-hematocrit) were incubated with plated compounds for 72h, and ring-stage P. knowlesi (1%-parasitemia starting, 1%-hematocrit) for 48h, before lysis and staining with dye. To quantify the species-specificity of the inhibitors, we divided the range of IC50s across the 4 test lines by the average IC50 across the same lines: inhibitors with increased scores show species-specific activity and reduced scores indicate broad-spectrum, pan-species activity.

P. falciparum strain Dd2 = test: Inhibitor susceptibility dose-response assay (SYBR-Green I), P. falciparum Dd2; type: cell-based, Plasmodium falciparum; conditions: Plasmodium falciparum, read-out: IC50 (S.D.), P. falciparum-Dd2
Description: as §1, §2

[1] = system: BdC9 line of B. divergens; test: Inhibitor susceptibility dose-response assay (SYBR-Green I), B. divergens; type: cell-based, Babesia divergens; conditions: Babesia divergens, read-out: IC50 (S.D.), B. divergens
Description: as §1, §2

in vitro = conditions: human
uninfected RBCs [2] = test: Cellular phosphatidylserine exposure assay (annexin V flow cytometry);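 as to all read-outs here: flow cytometry recording 10,000 events per condition, gated on single cells, with the two experiments using blood from separate donors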; conditions: for PS exposure on RBCs, in words: 5x P. falciparum 3D7-IC50, 24, 48, 72h
P. knowlesi YH1 strain = test: microbe, parasite or virus in culture; type: cell-based, Plasmodium knowlesi; conditions: for IC50: Plasmodium knowlesi, 48 h, read-out: IC50 (S.D.), P. knowlesi
Description: as §1, §2

RBC = RBC assay: PS exposure ref PMID 21063113; read-out: Micromolar IC50 (RBC), PS exposure; cited from earlier work
P. falciparum 3D7 = test: Co-administration with established antimalarials, IC50 shift; type: cell-based, Plasmodium falciparum; conditions: P<0.05
Text: Our experimental compound set is weighted toward kinase inhibitors, reflecting the high degree of small molecule development in this target space.

P. falciparum (3D7) = test: Assay for inhibition of parasite proliferation via RBC-targeting (transient exposure of RBCs, wash, then infection); type: cell-based, Plasmodium falciparum; conditions: for inhibitory activity following transient exposure of RBCs, in words: transient vs continued exposure, dose-response format where stated, n=3
Description: All plates were frozen for storage before assay. For assay, duplicate plates were preincubated with donor O+ RBCs at 2% hematocrit at 37°C in 50µL for 4-5 hours. Following preincubation, one but not the other plate in each pair was washed 4X in complete RPMI to dilute inhibitor. We transferred RBCs from both washed and unwashed plates to black, clear bottom 96-well plates (Corning Cat. No. 3904) and supplemented these suspensions with MACS-purified P. falciparum (3D7) schizonts for a starting parasitemia of 0.1% - 0.25% at 1% hematocrit. Following 72h incubation in standard culture conditions, samples were processed for SYBR-Green I signal ([Mandt et al., 2019]). […] To identify host-targeting compounds, we compared DMSO-treated to inhibitor-treated samples (Students t-test, paired). We carried out the assay with 1 µM mefloquine (Sigma-Aldrich Cat. No. M2319) as a control for reversible inhibition. All assays were conducted in biological triplicate, with each experiment utilizing different donor RBCs. For select compounds, we carried out this same assay in a dose-response series (n=3 experiments). Following normalization to DMSO-controls, we assessed inhibitor activity following transient exposure of RBCs by Two-Way ANOVA tests for repeated measures (Graphpad Prism v9): high P values indicate support for the null hypothesis that dose-dependent inhibition is not modulated by dilution after exposure, consistent with a direct inhibitory effect of the compounds on RBCs persisting after transient exposure.

uninfected RBCs [3] = conditions: 5x P. falciparum 3D7-IC50; 24, 48, 72h
[4] = 5x P. falciparum 3D7-IC50, % of RBCs, mean of 2 experiments
[5] = uninfected RBCs (red blood cells), 1% hematocrit
[6] = 24h, 5x P. falciparum 3D7-IC50, % of RBCs, mean of 2 experiments
[7] = 72h, 5x P. falciparum 3D7-IC50, % of RBCs, mean of 2 experiments
[8] = 3D7, 72h, ring-stage, n=3 experiments (or 2 where indicated with *)
[9] = DD2, 72h, ring-stage, n=3 experiments (or 2 where indicated with *)
[10] = 72h, asynchronous, n=3 experiments (or 2 where indicated with *)

| SMILES | IC50 (P. falciparum strain 3D7; 3D7, 72 h) [µM] | IC50 (P. falciparum strain Dd2; DD2, 72 h) [µM] | IC50 ([1]; 72 h) [µM] | Phosphatidylserine exposure (%) 48h (uninfected RBCs [2]; [4]) [%] | IC50 (P. knowlesi YH1 strain) [µM] | hemolysis at 24 h, 5 x P. falciparum 3D7-IC50 (in vitro; [5]) [%] | hemolysis at 48 h, 5 x P. falciparum 3D7-IC50 (in vitro; [5]) [%] | hemolysis at 72 h, 5 x P. falciparum 3D7-IC50 (in vitro; [5]) [%] | Phosphatidylserine exposure (%) 24h (uninfected RBCs [2]; [6]) [%] | Phosphatidylserine exposure (%) 72h (uninfected RBCs [2]; [7]) [%] | other results |
| --- | --- | --- | --- | --- | --- | --- | --- | --- | --- | --- | --- |
| CC(C)CC(O)(CC(C)C)c1cnn(C(=O)N2CCCC2)n1 [AA74-1] | 0.25 | 0.5 | 4 | 2 |  |  |  |  |  |  | hemolysis at 24 h, 5 x P. falciparum 3D7-IC50 (in vitro): -6%; hemolysis at 48 h, 5 x P. falciparum 3D7-IC50 (in vitro): -1%; hemolysis at 72 h, 5 x P. falciparum 3D7-IC50 (in vitro): 2%; Phosphatidylserine exposure (%) 24h (uninfected RBCs [2]): 1%; Phosphatidylserine exposure (%) 72h (uninfected RBCs [2]): 5% |
| COC[C@H]1Cn2cc(-c3nc(Nc4ccnn4C)ncc3C)nc2C(=O)N1Cc1ccc(F)c(F)c1 [AZD0364] | 16 | 13 | 16 |  |  |  |  |  |  |  |  |
| O=C(O)C1=CC(=C(c2ccc(O)c(C(=O)O)c2)c2ccc(O)c(C(=O)O)c2)C=CC1=O [Aurintricarboxylic acid (ATA), Aurintricarboxylic acid] | 37 | 44 | 29 |  |  |  |  |  |  |  |  |
| Nc1ccc(C2CCN(C(=O)c3ccc(Oc4ccc(C(F)(F)F)cc4)cc3)CC2)nn1 [BI 749327] | 25 | 22 | 30 |  | 40 |  |  |  |  |  |  |
| Clc1ccc(C(c2ccc(Cl)cc2)n2cc[n+](CC(OCc3ccc(Cl)cc3Cl)c3ccc(Cl)cc3Cl)c2)cc1 (stereo not drawn) [Calmidazolium] | 0.5 | 0.6 | 1.2 | 4 | 0.6 | -6 | 7 | 14 | 3 | 9 |  |
| CCCCCCCCc1ccc(CCC(N)(CO)CO)cc1 [FTY720] | 3.9 | 3.5 | 14 | 21 | 2.2 | 4 | 23 | 25 | 4 | 34 | IC50 (RBC): 5 to 10 µM |
| O=C1Nc2ccc(I)cc2/C1=C/c1cc(Br)c(O)c(Br)c1 [GW5074] | 19 | 13 | 30 |  | 10 |  |  |  |  |  |  |
| Cc1ccc(NC(=O)c2ccc(CN3CCN(C)CC3)cc2)cc1Nc1nccc(-c2cccnc2)n1 [Imatinib mesylate] |  |  |  | 2 |  | -2 | 2 | 7 | 2 |  | Phosphatidylserine exposure (%) 72h (uninfected RBCs [2]): 4% |
| Cn1nccc1Nc1nccc(-c2cc3c(s2)C(C)(C)N(CCN2CCOCC2)C3=O)n1 [LY3214996] | 5.2 | 5.7 | 10 | 2 | 6 | -1 | 13 | 16 | 2 | 5 |  |
| CCn1c2ccccc2c2cc(-n3nncc3-c3ccccc3)ccc21 [MBQ-167] | 33 | 23 | 40 |  | 38 |  |  |  |  |  |  |
| CN(C)C[C@@H]1CCn2cc(c3ccccc32)C2=C(C(=O)NC2=O)c2cn(c3ccccc23)CCO1 [Ruboxistaurin] |  |  |  | 2 | 3 | -1 | 6 | 14 | 2 | 6 | IC50 (P. falciparum strain 3D7; [8]): 0.9 µM; IC50 (P. falciparum strain Dd2; [9]): 0.9 µM; IC50 [1, 10]: 2.8 µM; reduction in the IC50 of chloroquine in combination with fixed, sublethal dose of test compound (P. falciparum 3D7): ≤ 2 fold; PS exposure on RBCs, in words (uninfected RBCs [2]): similarly low levels |
| Nc1nc(N)c2nc(-c3cccc(O)c3)c(-c3cccc(O)c3)nc2n1 [TG-100-115] |  |  |  | 3 | 0.8 | -1 | 12 | 18 | 2 | 5 | IC50 (P. falciparum strain 3D7; [8]): 9 µM; IC50 (P. falciparum strain Dd2; [9]): 7 µM; antiparasitic activity in vitro, in words, P. knowlesi (P. knowlesi YH1 strain; P. knowlesi): submicromolar activity; activity against P. knowlesi stronger than against the other parasite species (P. knowlesi YH1 strain; P. knowlesi vs other parasite species): ~ 10 x; IC50 [1, 10]: 13 µM; PS exposure on RBCs, in words (uninfected RBCs [2]): similarly low levels |
| O=C(O)/C=C/c1cc(Br)c(Br)c(Br)c1Br [Tetrabromocinnamic acid] | > 100 | > 85 | > 80 |  | > 80 |  |  |  |  |  |  |
| COc1ccc2c(c1)CCC1C2CCC2(C)C(NCCCCCCN3C(=O)C=CC3=O)CCC12 (stereo not drawn) [U-73122] |  |  |  | 9 | 4.4 | -3 | 16 | 13 | 5 | 11 | IC50 (P. falciparum strain 3D7; [8]): 4 µM; IC50 (P. falciparum strain Dd2; [9]): 5 µM; IC50 [1, 10]: 20 µM; antimalarial activity retained after transient exposure of RBCs, relative to continuous exposure to inhibitor (P. falciparum (3D7); 5x P. falciparum 3D7-IC50, RBC preincubation 4-5 hours then washed, 100% = inhibition with continuous exposure, P<0.01): ≥ 80%; inhibitory activity following transient exposure of RBCs, in words (P. falciparum (3D7)): statistically indistinguishable from inhibition with continued exposure; hemolysis of RBCs, in words (uninfected RBCs [3]): lower levels; PS exposure on RBCs, in words (uninfected RBCs [2]): lower levels |
| OC(c1cc(C(F)(F)F)nc2c(C(F)(F)F)cccc12)C1CCCCN1 (stereo not drawn) [mefloquine] |  |  |  |  |  |  |  |  |  |  | inhibitory activity following transient exposure of RBCs, in words (P. falciparum (3D7)): does not retain antimalarial activity at any dose |
